Read-outs that look alike come from different tables or passages of the source.
Assays:
human mPGES-1 = biological target: T1, human mPGES-1 (Homo sapiens, UniProt O14684); assay: Evaluation of human mPGES-1 enzyme inhibitory activity (HTRF measurement of PGE2); format: biochemical; conditions: IC50 value; microsome fraction of CHO-S cells expressing human mPGES-1, PGH2 substrate, PGE2 by HTRF; read-out: humans mPGES-1 enzyme inhibitory activity
T1 construct: made in house; host or cells: Chinese hamster ovary-derived cells (FreeStyle CHO-S), transient transfection of pcDNA3.1(+)/human mPGES-1; microsome fraction
T1 sequence (O14684 1-152): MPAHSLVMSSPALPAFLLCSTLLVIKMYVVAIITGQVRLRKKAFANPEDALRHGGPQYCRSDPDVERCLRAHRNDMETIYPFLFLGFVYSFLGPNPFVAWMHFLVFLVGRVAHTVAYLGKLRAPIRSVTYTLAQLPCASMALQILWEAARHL
Description: Experimental Example 1: Evaluation of Human mPGES-1 Enzyme Inhibitory Activity
The human mPGES-1 enzyme inhibitory activity of a test article was evaluated according to the report of Xu et al. (XU, D et al. MF63 [2-(6-chloro-1H-phenanthro[9,10-d]imidazol-2-yl)-isophthalonitrile], a selective microsomal prostaglandin E synthase-1 inhibitor relieves pyresis and pain in preclinical models of inflammation. J Pharmacol Exp Ther. September 2008, Vol. 326, No. 3, pages 754-763). The amount of PGE2 produced by human mPGES-1 in the presence of a test article was measured by the HTRF (homogeneous time resolved fluorescence) method, and the human mPGES-1 enzyme inhibitory activity of the test article was determined.
1) Preparation of Human mPGES-1 Expressing Cell Microsome Fraction
A DNA fragment containing human mPGES-1, which is added with a BamHI recognition cleavage sequence just before the translation initiation codon and an EcoRI recognition cleavage sequence just after the translation termination codon, was amplified by the PCR (Polymerase Chain Reaction) method using a human mPGES-1 expression plasmid DNA (pME-18S/iPGES-1) prepared in-house as a template. The purified DNA fragment was digested with BamHI and EcoRI, and ligated to pcDNA3.1(+) (Invitrogen, model number V790-20), similarly_digested with BamHI and EcoRI, by using a DNA Ligation kit ver. 2.1 (Takara Bio, model number 6022). The human mPGES-1 expression plasmid DNA was isolated from Escherichia coli DH5a (TOYOBO, model number DNA-903) transformed with the obtained ligation product. The base sequence of human mPGES-1 cloned to a vector was determined by the Dye Terminator method using BigDye Terminator v3.1 Cycle Sequencing Kit (Applied Biosystems, #4337455). The determined sequence was identical with the sequence of the protein translational region of human mPGES-1 (Accession number NM 004878) registered in the NCBI Reference Database.
Human mPGES-1 expression plasmid DNA was transfected into Chinese hamster ovary-derived cells (FreeStyle CHO-S Cell, Invitrogen, #R^800-07) by using a transgene reagent (FreeStyle MAX Reagent (Invitrogen, #16447-100)), and cultured with shaking (8% CO2, 37° C.) in a medium containing 8 mmol/L L-glutamine (GIBCO FreeStyle CHO Expression Medium, Invitrogen, #12651-022) for 48 hr.
The CHO-S cells were suspended in Homogenate Buffer (100 mmol/L potassium phosphate (pH 7.4), 250 mmol/L Sucrose, 100 mmol/L EDTA, complete EDTA free (Roche, #1873580)). Using an ultrasonic disruptor UD-201 (Tomy Seiko), the suspended cells were disrupted at output:3, duty cycle:50 for 30 seconds. The precipitate was removed by centrifugation (1,000×g, 5 min, 4° C.), and the supernatant was centrifuged (5,000×g, 10 min, 4° C.). The supernatant was further centrifuged (105,000×g, 60 min, 4° C.). The obtained precipitate was suspended in Resuspension Buffer (100 mmol/L potassium phosphate (pH 7.4), 250 mmol/L sucrose, 100 mmol/L EDTA, 10% glycerol) to give a microsome fraction.
The protein concentration of the microsome fraction was measured by the Bradford method (Protein Assay Kit, Bio-Rad). The microsome fraction was rapidly frozen in liquid nitrogen and preserved at −80° C. Human mPGES-1 in the microsome fraction was detected by Western Blot using rabbit anti-mPGES-1 polyclonal antibody (ThermoFisher Scientific, #PA1-10264).
2) Evaluation of Human mPGES-1 Enzyme Inhibitory Activity
A test article solution diluted with 0.1 mol/L potassium phosphate, pH 7.4 (hereinafter to be referred to as KPB) or DMSO (Nacalai Tesque, #13407-45) was added at 5 μL/well to 96 well V-bottom plate (Corning, #3363). The final DMSO concentration during the reaction was set to 2%(v/v). Furthermore, a microsome fraction of CHO-S cells expressing human mPGES-1, which was diluted with reduced GSH (12.5 mmol/L KPB solution, SIGMA, #G6529-25G) such that the protein concentration was 5 μg/mL, was added at 20 μL/well. […]

A549 cell = assay: Evaluation of PGE2 production inhibitory action using A549 cell (IL-1β stimulated); format: cell-based, human; conditions: Homo sapiens
Description: Experimental Example 2: Evaluation of PGE2 Production Inhibitory Action Using A549 Cell
A549 cell (Japan Health Sciences Foundation Research Resources Bank), which is cell line derived from humans lung cancer, was suspended in assay medium (Ham's F-12K (Wako, #080-08565) containing 2% FBS (Hyclone Laboratories, #SH30910.03), 100 units/mL penicillin and 100 μg/mL streptomycin (Invitrogen, #15140-122)), the suspension was added at 2.5×10^4 cells/100 μL/well to 96 well flat-bottom plate (Corning, #353072), and the plate was left standing for 20 hr in a CO2 incubator set at 37° C. The test article was serially diluted with DMSO (Nacalai Tesque, #13407-45), and then 20-fold diluted with the assay medium to prepare a test article solution having a ten-fold concentration of the final concentration. The final DMSO concentration during the reaction was set to 0.5% (v/v). The medium was removed from the plate in which the cell was added, new assay medium was added at 160 μL/well to the plate, and the plate was left standing for 10 min in a CO2 incubator. Then, the test article solution was added at 20 μL/well to the plate, and the plate was left standing for 30 min in a CO2 incubator. Next, recombinant humans IL-1β (R&D Systems, #201-LB) as a stimulant to enhance PGE2 production due to increase of mPGES-1 mRNA expression was added at 20 μL/well (the final concentration was 1 ng/mL) to the plate, and the plate was left standing for 18 hr in a CO2 incubator. The supernatant was collected at 180 μL/well, and the PGE2 concentration was measured using Prostaglandin E2 assay (CISbio Bioassays, #62P2APEC) according to the manual. As the reference standard for analytical curve, PGE2 (Cayman Chemical, #14010) was used. Using EnVision 2104 (Perkin Elmer), the time-resolved fluorescence at 620 nm and 665 nm relative to the excitation light at 337 nm was measured. PGE2 concentration was extrapolated from the PGE2 analytical curve. Average of the PGE2 concentrations of the respectively-treated wells was used as the data.
The PGE2 production inhibitory activity (%) of the test article was calculated according to the following Formula 3. PGE2 production inhibitory activity(%)=(PGE2A−PGE2X)/(PGE2A−PGE2B)×100 [Formula 3] • PGE2A: PGE2 concentration of vehicle-treated well • PGE2B: PGE2 concentration of blank well (no addition of recombinant humans IL-1B) • PGE2X: PGE2 concentration of test article-treated well

[1] = A549, 18 h, IC50 value, A549 cell, recombinant IL-1β 1 ng/mL, 18 hr, PGE2 in supernatant, read-out: cell PGE2 production inhibitory activity
[2] = A549, A549 cell, recombinant human IL-1β stimulation, read-out: cell PGE2 production inhibitory activity (IC50 value)

Row | IC50 (human mPGES-1) | IC50 (A549 cell; [1]) | IC50 (A549 cell; [2]) | Structure (SMILES) | inhibition at 0.03 µM (A549 cell; A549 cell, IL-1β stimulation, at the highest concentration given (0.03 μM), read-out: cell PGE2 production inhibitory activity (%), printed in parentheses after the > bound)
1 | 0.5 nM | 7.3 nM |  | CC1(c2cccc(-c3nc(O)nc(-c4cc(CNC(=O)C(C)(C)C(F)(F)F)ccc4Cl)n3)c2)CC1 [Example 49, N-(4-chloro-3-{4-hydroxy-6-[3-(1-methylcyclopropyl)phenyl]-1,3,5-triazin-2-yl}benzyl)-3,3,3-trifluoro-2,2-dimethylpropionamide] | 
2 | 0.5 nM | 170 nM |  | CC(C)(C(=O)NCc1ccc(Cl)c(-c2nc(O)nc(-c3ccc(OC4CC4)nc3)n2)c1)C(F)(F)F [Example 50] | 
3 | 0.6 nM | 410 nM |  | CCCCC(C)(C)C(=O)NCc1ccc(Cl)c(-c2nc(O)nc(-c3ccc(OCC)nc3)n2)c1 [Example 51] | 
4 | 0.4 nM | 3.7 nM |  | Cc1ccc(-c2nc(O)nc(-c3cc(CNC(=O)C(C)(C)C(F)(F)F)ccc3Cl)n2)cc1C(C)C [Example 53] | 
5 | 0.5 nM | 2.9 nM |  | Cc1ccc(-c2nc(O)nc(-c3cc(CNC(=O)C(C)(C)C(F)(F)F)ccc3Cl)n2)cc1C(C)(C)C [Example 54] | 
6 | 0.7 nM | 2.6 nM |  | CO[C@](C)(C(=O)NCc1ccc(Cl)c(-c2nc(O)nc(-c3ccc(Cl)c(C(C)C)c3)n2)c1)C(F)(F)F [Example 56] | 
7 | 1 nM | 150 nM |  | COc1ncc(-c2nc(O)nc(-c3cc(CNC(=O)C(C)(C)C(F)(F)F)ccc3Cl)n2)cc1C(C)C [Example 58] | 
8 | 0.3 nM | 53 nM |  | CC(C)(C(=O)NCc1ccc(Cl)c(-c2nc(O)nc(-c3ccc(OC4CCC4)nc3)n2)c1)C(F)(F)F [Example 59] | 
9 | 0.4 nM | 8.3 nM |  | O=C(NCc1ccc(Cl)c(-c2nc(O)nc(-c3ccc(OC4CCC4)nc3)n2)c1)C1(C(F)(F)F)CCCCC1 [Example 60] | 
10 | 0.5 nM |  | 79 nM | COCCCCOc1ccc(-c2nc(O)nc(-c3cc(CNC(=O)C(C)(C)C(F)(F)F)ccc3Cl)n2)cn1 [Example 61] | 
11 | 1.1 nM |  | 9.7 nM | CO[C@](C)(C(=O)NCc1ccc(Cl)c(-c2nc(O)nc(-c3cccc(C4(C)CC4)c3)n2)c1)C(F)(F)F [Example 65] | 
12 | 2.8 nM |  | 3.9 nM | CC(C)(C)c1cc(-c2nc(O)nc(-c3cc(CNC(=O)C(C)(C)C(F)(F)F)ccc3Cl)n2)ccc1F [Example 67] | 
13 | 0.6 nM |  | 11 nM | CCOCCCOc1ccc(-c2nc(O)nc(-c3cc(CNC(=O)C4(C(F)(F)F)CCCCC4)ccc3Cl)n2)cn1 [Example 68] | 
14 | 4.2 nM |  | > 30 nM | CCCc1cc(-c2nc(O)nc(-c3cc(CNC(=O)C(C)(C)C(F)(F)F)ccc3Cl)n2)cnc1OCC [Example 73] | 47%
15 | 1.3 nM |  | 29 nM | CO[C@@](C)(C(=O)NCc1ccc(Cl)c(-c2nc(O)nc(-c3cccc(C(C)C)c3)n2)c1)C(F)(F)F [Example 74] | 

The next lines start with the molecule.

Row | Structure (SMILES) | IC50 (human mPGES-1) | IC50 (A549 cell; [1]) | IC50 (A549 cell; [2]) | inhibition at 0.03 µM (A549 cell; A549 cell, IL-1β stimulation, at the highest concentration given (0.03 μM), read-out: cell PGE2 production inhibitory activity (%), printed in parentheses after the > bound)
16 | CC(C)c1cccc(-c2nc(O)nc(-c3cc(CNC(=O)C4(C(F)(F)F)CCCC4)ccc3Cl)n2)c1 [Example 52, 1-trifluoromethylcyclopentanecarboxylic acid 4-chloro-3-[4-hydroxy-6-(3-isopropylphenyl)-1,3,5-triazin-2-yl]benzylamide] | 1.1 nM | 6 nM |  | 
17 | CC(C)c1cc(-c2nc(O)nc(-c3cc(CNC(=O)C4(C(F)(F)F)CCCC4)ccc3Cl)n2)ccc1Cl [Example 55] | 1.9 nM | 2.6 nM |  | 
18 | COC1(C(=O)NCc2ccc(Cl)c(-c3nc(O)nc(-c4ccc(Cl)c(C(C)C)c4)n3)c2)CCCCC1 [Example 57] | 2.9 nM | 4.5 nM |  | 
19 | COc1ncc(-c2nc(O)nc(-c3cc(CNC(=O)C4(C(F)(F)F)CCCCC4)ccc3Cl)n2)cc1C(C)C [Example 62] | 1 nM |  | 50 nM | 
20 | CC1(c2cccc(-c3nc(O)nc(-c4cc(CNC(=O)C5(C(F)(F)F)CCCC5)ccc4Cl)n3)c2)CC1 [Example 63] | 1.7 nM |  | 14 nM | 
21 | CC1(c2cccc(-c3nc(O)nc(-c4cc(CNC(=O)C5(C(F)(F)F)CCCCC5)ccc4Cl)n3)c2)CC1 [Example 64] | 1.6 nM |  | 5.3 nM | 
22 | CCCOCCOc1ccc(-c2nc(O)nc(-c3cc(CNC(=O)C4(C(F)(F)F)CCCCC4)ccc3Cl)n2)cn1 [Example 69] | 2.3 nM |  | 8.1 nM | 
23 | CC(C)c1cccc(-c2nc(O)nc(-c3cc(CNC(=O)C(C)(C)CF)ccc3Cl)n2)c1 [Example 70] | 1.5 nM |  | 56 nM | 
24 | CCCc1cc(-c2nc(O)nc(-c3cc(CNC(=O)C4(C(F)(F)F)CCCCC4)ccc3Cl)n2)cnc1OCC [Example 72] | 5.3 nM |  | 5.9 nM | 
25 | CCC(CC)(OC)C(=O)NCc1ccc(Cl)c(-c2nc(O)nc(-c3cccc(C(C)C)c3)n2)c1 [Example 75] | 1.8 nM |  | 32 nM | 
26 | CC(C)c1cccc(-c2nc(O)nc(-c3cc(CNC(=O)C(C)(C)CC(F)(F)F)ccc3Cl)n2)c1 [Example 76] | 1.3 nM |  | 88 nM | 
